# From patent publication US9365522B2, “Pyrazole amide derivative” (AMGEN INC., priority 2015, dated 2016)
# Biological target: T1, human RORγ-LBD (Homo sapiens, UniProt P51449)
# T1 construct: made in house; host or cells: E. coli (BL-21)
# T1 sequence (P51449 262-518): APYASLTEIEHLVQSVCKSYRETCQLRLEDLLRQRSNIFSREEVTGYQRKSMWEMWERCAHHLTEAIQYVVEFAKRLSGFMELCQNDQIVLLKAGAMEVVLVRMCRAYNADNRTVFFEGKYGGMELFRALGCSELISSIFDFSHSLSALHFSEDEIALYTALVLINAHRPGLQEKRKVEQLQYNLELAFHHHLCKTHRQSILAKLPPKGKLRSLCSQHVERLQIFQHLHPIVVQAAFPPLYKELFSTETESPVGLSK
# Test: ROR gamma coactivator peptide recruitment Alphascreen assay (RORγ-LBD binding to GRIP1 coactivator peptide)
# Format: biochemical
# Conditions: 5 nM human RORγ-LBD, 30 nM 7-β-hydroxycholesterol, 50 nM biotinylated GRIP1 coactivator peptide, overnight incubation at room temperature; read-out: result (pIC50, RORγ coactivator peptide recruitment Alphascreen assay) (converted)
# Outline: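 Alphascreen proximity read-out after overnight room-temperature incubation, yielding pIC50 from 1-in-2 compound series (2.5% DMSO final). Mixture: 50 nM biotin-GRIP1 peptide, 30 nM 7-β-hydroxycholesterol agonist, 5 nM recombinant 6×His:Flag human RORγ-LBD (aa 262-518), 50 mM HEPES pH 7.4.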
row,SMILES,IC50
1,"CC(C)(C)CN(CC(=O)c1c(Cl)cncc1Cl)C(=O)c1cnn([C@@H]2CC[C@]3(C(=O)O)CCC[C@@H]3C2)c1C(F)(F)F [Example 877, (3aR,6R,7aR)-6-(4-((2-(3,5-dichloropyridin-4-yl)-2-oxoethyl)(neopentyl)carbamoyl)-5-(trifluoromethyl)-1H-pyrazol-1-yl)octahydro-1H-indene-3a-carboxylic acid]",6.17 nM
2,"C[C@]1(C(=O)O)CC[C@H](n2ncc(C(=O)N(CC(=O)c3c(Cl)cccc3Cl)[C@H]3CCC34CCC4)c2C(F)(F)F)CC1 [Example 641, trans-4-(4-((2-(2,6-dichlorophenyl)-2-oxoethyl)((1S)-spiro[3.3]hept-1-yl)carbamoyl)-5-(trifluoromethyl)-1H-pyrazol-1-yl)-1-methylcyclohexanecarboxylic acid]",2.14 nM
3,"COc1cc(Cl)c(C(=O)CN(Cc2ccc(F)cc2)C(=O)c2cnn([C@H]3CC[C@H](CC(=O)O)CC3)c2C(F)(F)F)c(Cl)c1 [Example 889, (trans-4-(4-((2-(2,6-dichloro-4-methoxyphenyl)-2-oxoethyl)(4-fluorobenzyl)carbamoyl)-5-(trifluoromethyl)-1H-pyrazol-1-yl)cyclohexyl)acetic acid]",2.04 nM
4,"C[C@@H]1C[C@@H](n2ncc(C(=O)N(CC(=O)c3c(Cl)cncc3Cl)[C@@H]3CCC34CCC4)c2C(F)(F)F)CC[C@@H]1C(=O)O [Example 817, (1S,2R,4S)-4-(4-((2-(3,5-dichloro-4-pyridinyl)-2-oxoethyl)((1R)-spiro[3.3]hept-1-yl)carbamoyl)-5-(trifluoromethyl)-1H-pyrazol-1-yl)-2-methylcyclohexanecarboxylic acid]",64.6 nM
5,"CCC(CC)(CC)CN(CC(=O)c1c(Cl)cncc1Cl)C(=O)c1cnn([C@H]2CC[C@](C)(C(=O)O)CC2)c1C(F)(F)F [Example 644, trans-4-(4-((2-(3,5-dichloro-4-pyridinyl)-2-oxoethyl)(2,2-diethylbutyl)carbamoyl)-5-(trifluoromethyl)-1H-pyrazol-1-yl)-1-methylcyclohexanecarboxylic acid]",3.98 nM
6,"CC1(C)CC[C@@H]1N(CC(=O)c1c(Cl)cccc1Cl)C(=O)c1cnn([C@H]2CC[C@@H](C(=O)O)CC2)c1C(F)(F)F [Example 637, cis-4-(4-((2-(2,6-dichlorophenyl)-2-oxoethyl)((1S)-2,2-dimethylcyclobutyl)carbamoyl)-5-(trifluoromethyl)-1H-pyrazol-1-yl)cyclohexanecarboxylic acid]",724 nM
7,"C[C@H]1C[C@H](n2ncc(C(=O)N(CC(=O)c3c(Cl)cncc3Cl)CC3(F)CC3)c2C(F)(F)F)CC[C@H]1C(=O)O (stereo in doubt) [Example 737, (1R,2S,4R)-4-(4-((2-(3,5-dichloro-4-pyridinyl)-2-oxoethyl)((1-fluorocyclopropyl)methyl)carbamoyl)-5-(trifluoromethyl)-1H-pyrazol-1-yl)-2-methylcyclohexanecarboxylic acid]",14.1 nM
8,"C[C@]1(C(=O)O)CC[C@H](n2ncc(C(=O)N(CC(=O)c3c(Cl)cncc3Cl)C[C@H]3CCCO3)c2C(F)(F)F)CC1 [Example 808, trans-4-(4-((2-(3,5-dichloro-4-pyridinyl)-2-oxoethyl)((2R)-tetrahydro-2-furanylmethyl)carbamoyl)-5-(trifluoromethyl)-1H-pyrazol-1-yl)-1-methylcyclohexanecarboxylic acid]",186 nM
9,"C[C@@H]1C[C@@H](n2ncc(C(=O)N(CC(=O)c3c(Cl)cncc3Cl)CC3(F)CC3)c2C(F)(F)F)CC[C@@H]1C(=O)O (stereo in doubt) [Example 736, (1S,2R,4S)-4-(4-((2-(3,5-dichloro-4-pyridinyl)-2-oxoethyl)((1-fluorocyclopropyl)methyl)carbamoyl)-5-(trifluoromethyl)-1H-pyrazol-1-yl)-2-methylcyclohexanecarboxylic acid]",110 nM
10,"Cc1cc(Cl)c(C(=O)CN(C[C@@H]2CC(C)(C)O2)C(=O)c2cnn([C@H]3CC[C@](C)(C(=O)O)CC3)c2C(F)(F)F)c(Cl)c1 [Example 723, trans-4-(4-((2-(2,6-dichloro-4-methylphenyl)-2-oxoethyl)(((2S)-4,4-dimethyl-2-oxetanyl)methyl)carbamoyl)-5-(trifluoromethyl)-1H-pyrazol-1-yl)-1-methylcyclohexanecarboxylic acid]",10 nM
11,"C[C@]12CC[C@](CN(CC(=O)c3c(Cl)cccc3Cl)C(=O)c3cnn([C@H]4CC[C@](C)(C(=O)O)CC4)c3C(F)(F)F)(CC1)C2 [Example 612, trans-4-(4-((2-(2,6-dichlorophenyl)-2-oxoethyl)(((1r,4r)-4-methylbicyclo[2.2.1]hept-1-yl)methyl)carbamoyl)-5-(trifluoromethyl)-1H-pyrazol-1-yl)-1-methylcyclohexanecarboxylic acid]",39.8 nM
12,"Cc1cc(Cl)c(C(=O)CN(CC2CC(C)(C)C2)C(=O)c2cnn([C@H]3CC[C@H](C(=O)O)CC3)c2C(F)(F)F)c(Cl)c1 [Example 520, trans-4-(4-((2-(2,6-dichloro-4-methylphenyl)-2-oxoethyl)((3,3-dimethylcyclobutyl)methyl)carbamoyl)-5-(trifluoromethyl)-1H-pyrazol-1-yl)cyclohexanecarboxylic acid]",2.51 nM
13,"C[C@@H]1C[C@@H](n2ncc(C(=O)N(CC(=O)c3c(Cl)cncc3Cl)CC3(C)CC3)c2C(F)(F)F)CC[C@@H]1C(=O)O [Example 788, (1S,2R,4S)-4-(4-((2-(3,5-dichloro-4-pyridinyl)-2-oxoethyl)((1-methylcyclopropyl)methyl)carbamoyl)-5-(trifluoromethyl)-1H-pyrazol-1-yl)-2-methylcyclohexanecarboxylic acid]",17.4 nM

# The next lines start with the values.
row,IC50,SMILES
1,45.7 nM,"CC1(C)C[C@@H](CN(CC(=O)c2c(Cl)cccc2Cl)C(=O)c2cnn([C@H]3CC[C@](C)(C(=O)O)CC3)c2C(F)(F)F)O1 [Example 629, trans-4-(4-((2-(2,6-dichlorophenyl)-2-oxoethyl)(((2S)-4,4-dimethyl-2-oxetanyl)methyl)carbamoyl)-5-(trifluoromethyl)-1H-pyrazol-1-yl)-1-methylcyclohexanecarboxylic acid]"
2,741 nM,"CC(C)(C)CN(CCc1c(Cl)c[nH]c(=O)c1Cl)C(=O)c1cnn([C@H]2CC[C@](C)(C(=O)O)CC2)c1C(F)(F)F [Example 885, trans-4-(4-((2-(3,5-dichloro-2-oxo-1,2-dihydro-4-pyridinyl)ethyl)(2,2-dimethylpropyl)carbamoyl)-5-(trifluoromethyl)-1H-pyrazol-1-yl)-1-methylcyclohexanecarboxylic acid]"
3,3.02 nM,"C[C@@H]1C[C@@H](n2ncc(C(=O)N(CC(=O)c3c(Cl)cncc3Cl)CC(C)(C)C(F)(F)F)c2C(F)(F)F)CC[C@@H]1C(=O)O [Example 802, (1S,2R,4S)-4-(4-((2-(3,5-dichloro-4-pyridinyl)-2-oxoethyl)(3,3,3-trifluoro-2,2-dimethylpropyl)carbamoyl)-5-(trifluoromethyl)-1H-pyrazol-1-yl)-2-methylcyclohexanecarboxylic acid]"
4,6.92 nM,"O=C(c1cnn([C@H]2CC[C@H](C(=O)O)CC2)c1C(F)(F)F)N(CCc1ccc(Cl)cc1Cl)Cc1ccc(Cl)cc1 [Example 504, trans-4-(4-((4-chlorobenzyl)(2-(2,4-dichlorophenyl)ethyl)carbamoyl)-5-(trifluoromethyl)-1H-pyrazol-1-yl)cyclohexanecarboxylic acid]"
5,2.75 nM,"CC1(C)CC(CN(CCc2c(Cl)cncc2Cl)C(=O)c2cnn([C@H]3CC[C@H](C(=O)O)CC3)c2C(F)(F)F)C1 [Example 553, trans-4-(4-((2-(3,5-dichloro-4-pyridinyl)ethyl)((3,3-dimethylcyclobutyl)methyl)carbamoyl)-5-(trifluoromethyl)-1H-pyrazol-1-yl)cyclohexanecarboxylic acid]"
6,110 nM,CC1(C)C[C@H](Cc2c(Cl)cncc2Cl)N(C(=O)c2cnn([C@H]3CC[C@](C)(C(=O)O)CC3)c2C(F)(F)F)C1 [Example 688]
7,3.31 nM,"Cc1cc(Cl)c(C(=O)CN(Cc2ccc(Cl)cc2)C(=O)c2cnn([C@H]3CC[C@H](C(=O)O)CC3)c2C(F)(F)F)c(Cl)n1 [Example 543, trans-4-(4-((4-chlorobenzyl)(2-(2,4-dichloro-6-methyl-3-pyridinyl)-2-oxoethyl)carbamoyl)-5-(trifluoromethyl)-1H-pyrazol-1-yl)cyclohexanecarboxylic acid]"
8,112 nM,"CC(C)(C)CN(CC(=O)c1c(Cl)cnc2ccccc12)C(=O)c1cnn([C@H]2CC[C@](C)(C(=O)O)CC2)c1C(F)(F)F [Example 538, trans-4-(4-((2-(3-chloro-4-quinolinyl)-2-oxoethyl)(2,2-dimethylpropyl)carbamoyl)-5-(trifluoromethyl)-1H-pyrazol-1-yl)-1-methylcyclohexanecarboxylic acid]"
9,2.4 nM,"CC1(C)CC(CN(CCc2c(Cl)cncc2Cl)C(=O)c2cnn([C@H]3CC[C@](C)(C(=O)O)CC3)c2C(F)(F)F)C1 [Example 556, trans-4-(4-((2-(3,5-dichloro-4-pyridinyl)ethyl)((3,3-dimethylcyclobutyl)methyl)carbamoyl)-5-(trifluoromethyl)-1H-pyrazol-1-yl)-1-methylcyclohexanecarboxylic acid]"
10,0.708 nM,"Cc1cc(Cl)c(C(=O)CN(CC2(C)CCC2)C(=O)c2cnn([C@H]3CC[C@H](CC(=O)O)CC3)c2C(F)(F)F)c(Cl)c1 [Example 890, (trans-4-(4-((2-(2,6-dichloro-4-methylphenyl)-2-oxoethyl)((1-methylcyclobutyl)methyl)carbamoyl)-5-(trifluoromethyl)-1H-pyrazol-1-yl)cyclohexyl)acetic acid]"
